Molecular target: human chemokine receptor CXCR7 (Homo sapiens (Human), UniProt P25106)
Experiment: Tango CXCR7-bla U2OS beta-arrestin recruitment assay (beta-lactamase reporter, FRET), antagonism of CXCL12/SDF1-α;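 also: compounds preincubated 15 min before CXCL12 addition, then 22 h at 37 °C, FRET emission ratio read with CCF4-AM substrate after 2 h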
Format: cell-based
Settings: antagonistic effect on CXCR7; Tango CXCR7-bla U2OS cells, CXCL12/SDF1-α at its EC80

human chemokine receptor CXCR7, sequence (P25106 whole entry): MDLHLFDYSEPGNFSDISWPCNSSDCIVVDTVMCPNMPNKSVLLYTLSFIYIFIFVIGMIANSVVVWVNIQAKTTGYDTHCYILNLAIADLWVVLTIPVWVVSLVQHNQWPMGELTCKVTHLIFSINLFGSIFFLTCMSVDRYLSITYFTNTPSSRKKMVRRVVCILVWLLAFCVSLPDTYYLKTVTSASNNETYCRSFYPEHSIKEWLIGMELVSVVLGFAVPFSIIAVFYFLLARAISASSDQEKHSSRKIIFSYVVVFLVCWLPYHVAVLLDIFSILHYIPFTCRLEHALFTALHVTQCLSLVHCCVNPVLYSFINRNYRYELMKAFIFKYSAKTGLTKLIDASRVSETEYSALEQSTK

| Compound | IC50 [µM] |
| --- | --- |
| CN(C)C(=O)[C@@H]1CN(CC2CC2)CC[C@H]1NC(=O)c1cc(-c2ccc(F)cc2F)no1 (racemic) [Example 1.149, rac-(3R*,4R*)-1-Cyclopropylmethyl-4-{[3-(2,4-difluoro-phenyl)-isoxazole-5-carbonyl]-amino}-piperidine-3-carboxylic acid dimethylamide] | 0.276 |
| CC(NC(=O)[C@H]1CN(C2CCCC2)CC[C@@H]1NC(=O)c1cc(-c2ccc(F)cc2F)on1)c1nc[nH]n1 (stereo partly drawn) [Example 4.038] | 0.522 |
| O=C(N[C@@H]1CCN(C2CCCCC2)C[C@H]1C(=O)NCc1ccncn1)c1cc(-c2ccc(F)cc2F)on1 (racemic) [Example 1.034, rac-(3R*,4R*)-1-Cyclohexyl-4-{[5-(2,4-difluoro-phenyl)-isoxazole-3-carbonyl]-amino}-piperidine-3-carboxylic acid (pyrimidin-4-ylmethyl)-amide] | 0.772 |
| CC(C)N(C)C(=O)[C@@H]1CN(C2CCCCC2)CC[C@H]1NC(=O)c1cc(-c2ccc(F)cc2F)on1 (racemic) [Example 1.017, rac-(3R*,4R*)-1-Cyclohexyl-4-{[5-(2,4-difluoro-phenyl)-isoxazole-3-carbonyl]-amino}-piperidine-3-carboxylic acid isopropyl-methyl-amide] | 0.489 |
| O=C(N[C@H]1CCN(CC2CC2)C[C@@H]1C(=O)NC1(c2ccc(F)cc2)CC1)c1cc(-c2ccc(F)cc2F)on1 [Example 4.062] | 0.141 |
| C=CCN1CC[C@H](NC(=O)c2cc(-c3ccc(F)cc3F)on2)[C@@H](C(=O)NC2(c3ncccn3)CC2)C1 [Example 2.093] | 0.026 |
| O=C(N[C@@H]1CCN(C2CCCCC2)C[C@H]1C(=O)N1CCC1)c1cn(-c2ccc(F)cc2F)nn1 (racemic) [Example 1.104, rac-1-(2,4-Difluoro-phenyl)-1H-[1,2,3]triazole-4-carboxylic acid [(3R*,4R*)-3-(azetidine-1-carbonyl)-1-cyclohexyl-piperidin-4-yl]-amide] | 0.964 |
| CC[C@@H]1CCC[C@H]1N1CC[C@@H](NC(=O)c2cc(-c3ccc(F)cc3F)on2)[C@H](C(=O)N(C)C)C1 [Example 2.015] | 0.054 |
| CC(NC(=O)[C@H]1CN(CC2CC2)CC[C@@H]1NC(=O)c1cc(-c2ccc(F)cc2F)on1)c1ccn[nH]1 (stereo partly drawn) [Example 4.023] | 0.069 |
| COCC(C)(C)NC(=O)[C@@H]1CN(C2CCCCC2)CC[C@H]1NC(=O)c1noc(-c2ccc(F)cc2F)n1 (racemic) [Example 1.152, rac-(3R*,4R*)-1-Cyclohexyl-4-{[5-(2,4-difluoro-phenyl)-[1,2,4]oxadiazole-3-carbonyl]-amino}-piperidine-3-carboxylic acid (2-methoxy-1,1-dimethyl-ethyl)-amide] | 0.569 |
| O=C(N[C@@H]1CCN(C2CCCCC2)C[C@H]1C(=O)Nc1cccnc1)c1cc(-c2ccc(F)cc2F)on1 (racemic) [Example 1.067, rac-(3R*,4R*)-1-Cyclohexyl-4-{[5-(2,4-difluoro-phenyl)-isoxazole-3-carbonyl]-amino}-piperidine-3-carboxylic acid pyridin-3-ylamide] | 0.319 |
| O=C(N[C@@H]1CCN(C2CCCCC2)C[C@H]1C(=O)NC1(c2ccccn2)CC1)c1cc(-c2ccccc2F)on1 (racemic) [Example 3.009, rac-(3R*,4R*)-1-Cyclohexyl-4-{[5-(2-fluoro-phenyl)-isoxazole-3-carbonyl]amino}-piperidine-3-carboxylic acid (1-pyridin-2-yl-cyclopropyl)-amide] | 0.286 |
| C[C@@H]1CCC[C@H]1N1CC[C@@H](NC(=O)c2cc(-c3ccc(F)cc3F)on2)[C@H](C(=O)N(C)C)C1 [Example 2.023a] | 0.009 |
| CN(C)C(=O)[C@@H]1CN(C2CCCCC2)CC[C@H]1NC(=O)c1cc(-c2ccc(Cl)cc2F)on1 (racemic) [Example 3.006, rac-(3R*,4R*)-4-{[5-(4-Chloro-2-fluoro-phenyl)-isoxazole-3-carbonyl]-amino}-1-cyclohexyl-piperidine-3-carboxylic acid dimethylamide] | 0.108 |
| C[C@@H](NC(=O)[C@@H]1CN(C2CCCCC2)CC[C@H]1NC(=O)c1cc(-c2ccc(F)cc2F)no1)c1cnccn1 (relative stereo) [Example 1.133, (3R*,4R*)-1-Cyclohexyl-4-{[3-(2,4-difluoro-phenyl)-isoxazole-5-carbonyl]-amino}-piperidine-3-carboxylic acid ((R)-1-pyrazin-2-yl-ethyl)-amide] | 0.594 |
| Cc1cc(CNC(=O)[C@@H]2CN(C3CCCCC3)CC[C@H]2NC(=O)c2cc(-c3ccc(F)cc3F)on2)n(C)n1 (racemic) [Example 1.054, rac-(3R*,4R*)-1-Cyclohexyl-4-{[5-(2,4-difluoro-phenyl)-isoxazole-3-carbonyl]-amino}-piperidine-3-carboxylic acid (2,5-dimethyl-2H-pyrazol-3-ylmethyl)-amide] | 0.311 |
| O=C(N[C@@H]1CCN(CC2CC2)C[C@H]1C(=O)NC1(c2ncccn2)CC1)c1cc(-c2c(F)cc(F)cc2F)on1 (racemic) [Example 1.177, rac-(3R*,4R*)-1-Cyclopropylmethyl-4-{[5-(2,4,6-trifluoro-phenyl)-isoxazole-3-carbonyl]-amino}-piperidine-3-carboxylic acid (1-pyrimidin-2-yl-cyclopropyl)-amide] | 0.005 |
| (3R*,4R*)-1-Cyclopentyl-4-{[1-(2,4-difluoro-phenyl)-1H-[1,2,3]triazole-4-carbonyl]-amino}-piperidine-3-carboxylic acid ((1S*,2R*)-2-phenyl-cyclopropyl)-amide and (3R*,4R*)-1-Cyclopentyl-4-{[1-(2,4-difluoro-phenyl)-1H-[1,2,3]triazole-4-carbonyl]-amino}-piperidine-3-carboxylic acid ((1R*,2S*)-2-phenyl-cyclopropyl)-amide [Example 1.146] | 0.904 |
| COc1cccc(C2(NC(=O)[C@H]3CN(CC4CC4)CC[C@@H]3NC(=O)c3cc(-c4ccc(F)cc4F)on3)CC2)c1 [Example 4.059] | 0.061 |
| O=C(N[C@@H]1CCN(C2CCCCC2)C[C@H]1C(=O)NCC(F)F)c1cc(-c2ccc(F)cc2F)on1 (racemic) [Example 1.026, rac-(3R*,4R*)-1-Cyclohexyl-4-{[5-(2,4-difluoro-phenyl)-isoxazole-3-carbonyl]-amino}-piperidine-3-carboxylic acid (2,2-difluoro-ethyl)-amide] | 0.627 |
| CN(CCc1ccccn1)C(=O)[C@@H]1CN(C2CCCC2)CC[C@H]1NC(=O)c1cc(-c2ccc(F)cc2F)on1 [Example 2.078] | 0.072 |
| CC(CNC(=O)[C@@H]1CN(C2CCCCC2)CC[C@H]1NC(=O)c1cc(-c2ccc(F)cc2F)on1)c1ccccc1 (stereo partly drawn) [Example 1.06] | 0.727 |
| O=C(N[C@@H]1CCN(CC2CC2)C[C@H]1C(=O)NC1(c2ncccn2)CC1)c1cc(-c2ccc(C(F)(F)F)cc2)on1 (single isomer, unassigned) [Example 1.192a, (3R*,4R*)-1-Cyclopropylmethyl-4-{[5-(4-trifluoromethyl-phenyl)-isoxazole-3-carbonyl]-amino}-piperidine-3-carboxylic acid (1-pyrimidin-2-yl-cyclopropyl)-amide] | 0.854 |
| CC(C)N1CC[C@H](NC(=O)c2ncc(-c3ccc(F)cc3F)o2)[C@@H](C(=O)NC2(c3ncccn3)CC2)C1 [Example 2.099] | 0.343 |
| C[C@@H](NC(=O)[C@@H]1CN(C2CCCCC2)CC[C@H]1NC(=O)c1cc(-c2c(F)cc(F)cc2F)on1)c1cnccn1 (racemic) [Example 1.129, (3R*,4R*)-1-Cyclohexyl-4-{[5-(2,4,6-trifluoro-phenyl)-isoxazole-3-carbonyl]-amino}-piperidine-3-carboxylic acid ((R)-1-pyrazin-2-yl-ethyl)-amide] | 0.105 |
| CC1(NC(=O)[C@@H]2CN(C3CCCCC3)CC[C@H]2NC(=O)c2cc(-c3ccc(F)cc3F)on2)CCC1 [Example 4.016] | 0.463 |
| C[C@@H](NC(=O)[C@@H]1CN(C2CCCCC2)CC[C@H]1NC(=O)c1noc(-c2ccc(F)cc2F)n1)c1cnccn1 [Example 1.16] | 0.526 |

Reference: patent US11306078B2, “Piperidine CXCR7 receptor modulators” (IDORSIA PHARMACEUTICALS LTD., priority 2016, dated 2022)
